Data published in patent publication US7601713B2, “Kinase inhibitors and their uses” (Rigel Pharmaceuticals, Inc., priority 2005, dated 2009).
Read-outs that look alike come from different tables or passages of the source.

How the values were obtained:
[1] = tested on: JAK kinases (JAK1 and JAK3); assay: JAK inhibition: IL-4-stimulated CD23 upregulation in human Ramos B-cells, FACS; assay type: cell-based; settings: IL-4 stimulated Ramos B-cells, read-out: IC50, inhibition of JAK kinases in cellular assay
Summary of the method: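 Ramos B-cells in RPMI with 5% FBS were pre-incubated with compound for 1 h at 37 °C, then stimulated with IL-4 (50 U/ml final) for 20–24 h. CD23 upregulation was measured by anti-CD23-PE staining and FACS.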

[2] = biological target: Lck kinase (Homo sapiens, UniProt P06239); assay: Lck kinase inhibition; assay type: biochemical
Lck kinase, sequence (P06239 whole entry): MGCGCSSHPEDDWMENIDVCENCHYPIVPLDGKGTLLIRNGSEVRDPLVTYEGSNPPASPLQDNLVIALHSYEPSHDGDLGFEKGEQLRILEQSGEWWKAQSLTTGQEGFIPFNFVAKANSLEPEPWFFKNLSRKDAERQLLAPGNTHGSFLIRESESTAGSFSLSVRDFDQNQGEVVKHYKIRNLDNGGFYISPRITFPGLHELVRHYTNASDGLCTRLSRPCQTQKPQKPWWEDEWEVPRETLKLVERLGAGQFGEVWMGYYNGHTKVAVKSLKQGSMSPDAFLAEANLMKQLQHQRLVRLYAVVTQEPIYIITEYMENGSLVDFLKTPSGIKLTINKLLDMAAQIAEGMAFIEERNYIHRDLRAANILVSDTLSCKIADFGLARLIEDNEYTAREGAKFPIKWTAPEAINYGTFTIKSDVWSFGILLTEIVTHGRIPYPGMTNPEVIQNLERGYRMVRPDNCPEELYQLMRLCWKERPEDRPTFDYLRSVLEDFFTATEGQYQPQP

[3] = biological target: Syk kinase (Homo sapiens, UniProt P43405); assay: cell-based Syk assay; settings: read-out: IC50, inhibition of Syk kinase
[4] = tested on: tumor cell lines; settings: cited from earlier work; for antiproliferative activity against tumor cell types: in vitro assays, variety of tumor cell lines
[5] = tested on: Aurora kinases; settings: cited from earlier work
[6] = biological target: T1, Axl kinase (Homo sapiens, UniProt P30530); assay: Phospho-Akt in-cell Western assay (Axl antibody cross-linking, Hela cells); assay type: cell-based; settings: phospho-Akt readout, read-out: IC50, inhibition of Axl kinase
T1 construct: endogenous in cells; host or cells: HeLa cells
T1 sequence (P30530 26-894): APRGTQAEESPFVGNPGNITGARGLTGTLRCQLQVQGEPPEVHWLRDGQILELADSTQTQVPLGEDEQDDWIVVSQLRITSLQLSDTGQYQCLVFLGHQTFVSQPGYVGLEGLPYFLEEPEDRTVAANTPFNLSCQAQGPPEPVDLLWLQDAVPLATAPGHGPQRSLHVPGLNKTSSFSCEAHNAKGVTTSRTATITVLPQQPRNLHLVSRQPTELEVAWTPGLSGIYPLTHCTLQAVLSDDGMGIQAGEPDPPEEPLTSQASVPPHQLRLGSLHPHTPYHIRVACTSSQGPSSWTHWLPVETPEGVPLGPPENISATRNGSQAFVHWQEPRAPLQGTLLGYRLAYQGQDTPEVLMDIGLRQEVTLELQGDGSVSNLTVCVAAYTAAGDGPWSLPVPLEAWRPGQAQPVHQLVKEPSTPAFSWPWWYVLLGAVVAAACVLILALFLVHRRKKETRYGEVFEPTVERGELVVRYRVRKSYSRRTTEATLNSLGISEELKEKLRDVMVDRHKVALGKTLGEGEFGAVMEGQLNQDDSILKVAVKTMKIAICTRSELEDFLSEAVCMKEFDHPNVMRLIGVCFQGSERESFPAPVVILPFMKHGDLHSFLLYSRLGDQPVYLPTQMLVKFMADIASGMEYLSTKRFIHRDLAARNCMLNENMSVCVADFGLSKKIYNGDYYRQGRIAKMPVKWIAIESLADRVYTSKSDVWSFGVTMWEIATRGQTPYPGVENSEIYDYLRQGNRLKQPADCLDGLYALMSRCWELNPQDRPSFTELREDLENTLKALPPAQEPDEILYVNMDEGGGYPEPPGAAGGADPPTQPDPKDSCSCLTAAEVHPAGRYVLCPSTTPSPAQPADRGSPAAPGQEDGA
Summary of the method: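 HeLa cells were starved 24 h in 0.5% FCS with 500 ng/mL Axl/Fc, pretreated with compound 1 h at 37 °C, then stimulated 5 min by cross-linked anti-Axl antibodies. Phospho-Akt was detected by in-cell chemiluminescent immunoassay and normalized to crystal violet cell number at 590 nm.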

[7] = biological target: PRK1 kinase (Homo sapiens, UniProt Q16512); assay: PRK1 kinase inhibition; assay type: biochemical
PRK1 kinase, sequence (Q16512 whole entry): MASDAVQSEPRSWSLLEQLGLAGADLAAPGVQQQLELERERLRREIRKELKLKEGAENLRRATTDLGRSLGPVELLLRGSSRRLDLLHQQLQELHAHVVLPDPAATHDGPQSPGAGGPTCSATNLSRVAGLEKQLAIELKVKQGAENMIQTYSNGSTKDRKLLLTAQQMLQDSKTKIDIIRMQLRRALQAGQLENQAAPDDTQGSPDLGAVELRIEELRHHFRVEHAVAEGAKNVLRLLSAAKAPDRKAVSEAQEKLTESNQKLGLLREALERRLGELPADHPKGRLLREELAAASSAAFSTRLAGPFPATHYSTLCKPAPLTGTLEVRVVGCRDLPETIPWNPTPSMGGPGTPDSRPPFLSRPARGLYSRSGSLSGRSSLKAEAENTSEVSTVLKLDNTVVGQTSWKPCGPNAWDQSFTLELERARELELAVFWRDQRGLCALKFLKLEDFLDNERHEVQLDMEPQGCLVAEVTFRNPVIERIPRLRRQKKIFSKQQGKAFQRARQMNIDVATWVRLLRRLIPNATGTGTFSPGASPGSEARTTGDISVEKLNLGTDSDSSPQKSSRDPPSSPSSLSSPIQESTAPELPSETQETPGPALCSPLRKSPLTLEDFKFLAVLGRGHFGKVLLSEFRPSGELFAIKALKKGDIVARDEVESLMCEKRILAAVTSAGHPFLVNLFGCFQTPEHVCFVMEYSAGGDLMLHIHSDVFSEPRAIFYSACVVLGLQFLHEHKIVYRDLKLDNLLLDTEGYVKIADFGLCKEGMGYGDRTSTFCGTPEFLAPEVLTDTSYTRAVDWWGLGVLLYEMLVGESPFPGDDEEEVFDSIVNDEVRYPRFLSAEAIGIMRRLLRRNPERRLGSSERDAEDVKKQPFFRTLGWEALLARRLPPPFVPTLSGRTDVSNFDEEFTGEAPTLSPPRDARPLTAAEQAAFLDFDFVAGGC

[8] = biological target: kinase Lyn b (Homo sapiens, UniProt P07948); assay: Lyn b kinase inhibition; assay type: biochemical
kinase Lyn b, sequence (P07948 1-491 isoform P07948-2): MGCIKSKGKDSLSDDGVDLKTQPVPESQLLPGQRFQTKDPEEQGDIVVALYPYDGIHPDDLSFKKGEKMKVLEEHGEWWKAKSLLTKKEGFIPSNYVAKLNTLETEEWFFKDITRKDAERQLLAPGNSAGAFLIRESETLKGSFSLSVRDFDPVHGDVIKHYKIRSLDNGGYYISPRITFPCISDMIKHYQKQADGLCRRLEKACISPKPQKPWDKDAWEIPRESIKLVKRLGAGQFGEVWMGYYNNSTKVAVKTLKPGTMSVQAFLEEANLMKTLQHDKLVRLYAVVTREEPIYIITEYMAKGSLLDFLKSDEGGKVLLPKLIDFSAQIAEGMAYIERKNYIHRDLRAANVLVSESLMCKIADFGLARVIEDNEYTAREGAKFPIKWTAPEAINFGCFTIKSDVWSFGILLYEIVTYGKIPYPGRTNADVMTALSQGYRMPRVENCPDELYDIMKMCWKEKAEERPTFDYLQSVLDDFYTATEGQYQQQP

[9] = biological target: Aurora kinase B (Homo sapiens, UniProt Q96GD4); settings: compared to the (1S,2S,3R,4R) diastereomers; cited from earlier work
Aurora kinase B, sequence (Q96GD4 whole entry, species assumed): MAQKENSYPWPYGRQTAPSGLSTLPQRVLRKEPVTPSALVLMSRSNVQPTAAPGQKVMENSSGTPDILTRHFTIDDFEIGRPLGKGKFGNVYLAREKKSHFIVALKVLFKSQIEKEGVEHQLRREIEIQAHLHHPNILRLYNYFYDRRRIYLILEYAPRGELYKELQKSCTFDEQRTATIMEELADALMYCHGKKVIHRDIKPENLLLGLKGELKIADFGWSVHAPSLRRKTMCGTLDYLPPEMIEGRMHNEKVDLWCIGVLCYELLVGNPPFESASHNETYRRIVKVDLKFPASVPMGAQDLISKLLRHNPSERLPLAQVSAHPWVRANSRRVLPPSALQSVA

Row | SMILES | IC50 [2] [µM] | IC50 [3] [µM] | antiproliferative activity against tumor cell types [4] | inhibition of Aurora kinases [5] | further results
1 | CC(C)Oc1cccc(Nc2nc(NC3CC4CCC3C4)c3nc[nH]c3n2)c1 (racemic) [Compound 153, Racemic-(2-exo)-N6-(bicyclo[2.2.1]hept-2-yl)-N2-(3-isopropoxy)phenyl-1H-purine-2,6-diamine] | < 5 | < 10 | – | – | IC50 [1]: < 5 µM
2 | Cc1cc(Nc2ncc(F)c(NC3CCCC3C(N)=O)n2)ccc1N1CCN(C)CC1 [trans (1R,2R) diastereomer, N4-(2-aminocarbonylcyclopent-1-yl)-5-fluoro-N2-[4-(4-methylpiperazin-1-yl)-3-methylphenyl]-2,4-pyrimidinediamine] | – | – | inhibit the proliferation | inhibited Aurora kinases | antiproliferative activity against tumor cell types ([4]; listed as trans(1R,2R)): exhibited antiproliferative activity
3 | Cc1cccc(Nc2nc(NC3CC4CCC3C4)c3nc[nH]c3n2)c1 (racemic) [Compound 151, Racemic-(2-exo)-N6-(bicyclo[2.2.1]hept-2-yl)-N2-(3-methyl)phenyl-1H-purine-2,6-diamine] | < 5 | < 10 | – | – | –
4 | NC(=O)C1C2C=CC(C2)C1Nc1nc(Nc2cccc(CN3CCOCC3)c2)nc2[nH]ccc12 (racemic) [Compound 221, Racemic-(2-exo,3-exo)-N4-(3-aminocarbonylbicyclo [2.2.1]hept-5-en-2-yl)-N2-(3-morpholin-4-yl-methylphenyl)-1H-pyrrolo[2,3-d]pyrimidine-2,4-diamine] | – | < 5 | – | – | IC50 [6]: < 5 µM; IC50 [7]: < 5 µM
5 | Cc1cc(Nc2ncc(F)c(NC3CCCC3C(N)=O)n2)ccc1N1CCN(C)CC1 [cis (1R,2S), N4-(2-aminocarbonylcyclopent-1-yl)-5-fluoro-N2-[4-(4-methylpiperazin-1-yl)-3-methylphenyl]-2,4-pyrimidinediamine] | – | – | inhibit the proliferation | inhibited Aurora kinases | antiproliferative activity against tumor cell types ([4]; listed as (1R,2S)): exhibited antiproliferative activity
6 | Cc1cc(Nc2ncc(F)c(NC3CCCC3C(N)=O)n2)ccc1N1CCN(C)CC1 [cis (1S,2R), N4-(2-aminocarbonylcyclopent-1-yl)-5-fluoro-N2-[4-(4-methylpiperazin-1-yl)-3-methylphenyl]-2,4-pyrimidinediamine] | – | – | inhibit the proliferation | inhibited Aurora kinases | antiproliferative activity against tumor cell types ([4]; listed as cis(1S,2R)): exhibited antiproliferative activity
7 | N#Cc1ccc(-c2ccc(Nc3nc(NC4C5C=CC(C5)C4C(N)=O)c4cc[nH]c4n3)cc2)cc1 (racemic) [Compound 220, Racemic-(2-exo,3-exo)-N4-(3-aminocarbonylbicyclo [2.2.1]hept-5-en-2-yl)-N2-[(4′-cyano[1,1′-biphenyl]-4-yl)]-1H-pyrrolo[2,3-d]pyrimidine-2,4-diamine] | – | – | – | – | IC50 [6]: > 10 µM; IC50 [7]: < 5 µM
8 | COc1ccccc1Nc1nc(NC2C3C=CC(C3)C2C(N)=O)c2nc[nH]c2n1 (racemic) [Compound 136, Racemic-(2-exo,3-exo-)-N6-(3-aminocarbonylbicyclo[2.2. 1]hept-5-en-2-yl)-N2-(2-methoxy)phenyl-1H-purine-2,6-diamine] | < 10 | < 10 | – | – | IC50 [8]: > 10 µM
9 | Cc1cc(Nc2ncc(F)c(NC3C4C=CC(C4)C3C(N)=O)n2)ccc1N1CCN(C)CC1 [(1R,2R,3S,4S) diastereomer, N4-(3-aminocarbonylbicyclo [2.2.1]hept-5-en-2-yl)-5-fluoro-N2-[3-methyl-4-(4-methylpiperazin-1-yl)phenyl]-2,4-pyrimidinediamine] | – | – | – | – | potency of (1R,2R,3S,4S) diastereomer relative to (1S,2S,3R,4R) diastereomer [4]: approximately 1000 fold; IC50s against tumor cell lines ([4]; isolated stereoisomers): nanomolar range; inhibition of Aurora kinase B in cells [9]: similarly superior results
